Values quoted from earlier work, collected in patent US7319013B2, “Serine hydroxymethyltransferase as a target for herbicides” (BASF Aktiengesellschaft, priority 2002, dated 2008).

How the values were obtained:
[1] = system: SHMT from Euglena gracilis; conditions: millimolar concentrations
SHMT from CHO cells [2] = conditions: by means of photo-linkage
SHMT from CHO cells [3] = system: SHMT from CHO cells
ovine SHMT = molecular target: T1, ovine SHMT (Ovis aries, UniProt P35623); conditions: micromolar concentrations
T1 sequence (P35623 2-484 limits assumed): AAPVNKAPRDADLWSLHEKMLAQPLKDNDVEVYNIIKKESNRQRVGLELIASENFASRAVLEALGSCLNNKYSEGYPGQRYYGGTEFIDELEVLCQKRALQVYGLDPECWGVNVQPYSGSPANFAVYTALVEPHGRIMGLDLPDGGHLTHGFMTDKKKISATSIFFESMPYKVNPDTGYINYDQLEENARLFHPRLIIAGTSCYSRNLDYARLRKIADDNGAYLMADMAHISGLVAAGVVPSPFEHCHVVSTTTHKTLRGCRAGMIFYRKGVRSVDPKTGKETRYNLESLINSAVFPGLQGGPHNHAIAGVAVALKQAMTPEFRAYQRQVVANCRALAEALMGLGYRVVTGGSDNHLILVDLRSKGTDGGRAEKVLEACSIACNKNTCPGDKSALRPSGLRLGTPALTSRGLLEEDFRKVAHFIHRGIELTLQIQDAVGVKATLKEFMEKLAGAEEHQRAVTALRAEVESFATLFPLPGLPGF

| Structure (SMILES) | inhibition of SHMT [1] | further results |
| --- | --- | --- |
| N[C@@H](CO)C(=O)O [serine] | can be inhibited |  |
| NC(Cn1ccc(=O)c(O)c1)C(=O)O (stereo not drawn) [mimosine] |  | binding to SHMT (SHMT from CHO cells [2]): can be bound; inhibition of SHMT (SHMT from CHO cells [3]): does not inhibit it |
| NOC[C@@H](N)C(=O)O [O-amino-D-serine] |  | inhibitory effect on SHMT (ovine SHMT): have an inhibitory effect |
| NCC(=O)O [glycin] | can be inhibited |  |
| N[C@@H](CS)C(=O)O [cystein] | can be inhibited |  |
